Experimental data from patent US6368788B1 (priority 1987, dated 2002).
“And” between values parts separate entries of the source, which are not always exact repeats. Identical values can stand only once. Marks after values point to notes of the source that are not given here.

How the values were obtained:
influenza = test: Volunteers experimentally infected with influenza (Protocol I); settings: human, in vivo
Excerpt: Thirty-four similarly infected volunteers (34) served as untreated controls. […] The hematological and immunological indices examined immediately following the period of treatment were restored to within the normal range.

lymphocytes = test: In vitro incubation of pyoderma patients' lymphocytes with 0.01% L-Glu-L-Trp; type: cell-based, human; settings: 100 μg/mL in vitro
Burns = test: Burns; design: species or system human; settings: in vivo
Experimental: A total of 23 patients with cutaneous burns were treated with L-Glu-L-Trp either im or intranasally. Fourteen patients in a control group were treated using conventional methods.

Chronic prostatitis = type: in vivo, human
Excerpt: Thirty four patients (aged 22 to 45 years) with chronic prostatitis were entered into Group 1 of this trial during the acute phase of their disease. Diagnosis was based on medical history, and physical examination of the prostate (palpated through the rectum). Laboratory testing included microscopic examination of prostate gland secretions, spermography and urinalysis. All patients had previously received full courses of unsuccessful therapy with antibacterial agents, and additional individualized therapy including uroantiseptics, spasmolytic, ganglion blockers, novocain paraprostate and presacral blocks, ultrasound, and prostate gland massage. Success of any individualized therapy was only partial and short-term. […]
Peripheral blood samples were collected for laboratory testing 10 days after the last injection of L-Glu-L-Trp. […]

Dengue virus = test: Hemorrhagic Dengue Fever Protocol A; type: in vivo, human
Experimental: L-Glu-L-Trp was administered to 21 patients with hemorrhagic Dengue Fever, and 28 patients receiving conventional therapy served as controls. L-Glu-L-Trp was administered im single daily doses of 100 μg on each of 5 consecutive days as an adjunct to ongoing conventional therapy. […] The investigators also observed that L-Glu-L-Trp treated patients experienced a reduction in muscle and bone pain. Immunological indices in peripheral blood were also normalized.
Forty nine patients (20-30 years of age; Kinh nationality) with diagnosed Dengue Fever were entered into the trial. The patients were referred to the 175th Military Hospital in Ho Chi Minh City at the time of an epidemic of Dengue fever in the South […] Republic of Vietnam. Diagnosis was based on the criteria recommended by the World Health Organization (1986) using medical histories, and clinical and laboratory data. Serological analyses were conducted at the Arbovirus Infectious Diseases Laboratory of the Pasteur Institute in Ho Chi Minh City. […] Dyspeptic toxicosis, i.e., nausea and vomiting were rarely encountered (15% and 11.7%, respectively). Joint and muscle pains were pronounced, most commonly involving the spinal joints in the lumbar region (96.6%), joints of the pelvic girdle (82.2%), the ulnar joints (53.4%), as well as, the muscles of the lumbar (69%) and abdominal regions (69%). Exanthema (40.7%) and lymphadenopathy (46.7%) were evident in certain patients. […] Leukocytes during peak episodes of disease were recorded to be 4.60±0.17×10^9/L, and the absolute number of lymphocytes varied widely from 0.95 to 4.29×10^9/L.
Group 1 received conventional maintenance therapy consisting of detoxifying preparations and methods, e.g., fluids, fever control agents and the like. Group 2 received combination therapy, i.e., maintenance therapy and L-Glu-L-Trp, but only during periods of acute disease activity. L-Glu-L-Trp was administered at a dosage of 500 μg. The efficacy of the respective treatment protocols was evaluated by recording the most frequently used clinical indicia of Dengue disease activity: namely, the clinical indicia recorded in TABLE 45.

[1] = Chronic liver disease: jaundice and systemic toxicity; design: species or system human; settings: in vivo
E. coli = test: Survival after acute peritonitis with LD100 dose of E. coli; type: in vivo, mice
M. bovis = type: in vivo, mice; settings: mouse, in vivo
Herpes Zoster = settings: on the average
[2] = After L-Glu-L-Trp, pre-treatment value Decreased (n = 14)
[3] = Group 1, After L-Glu-L-Trp, 10 days after the last injection
[4] = Combination L-Glu-L-Trp Therapy (n = 21)

L-Glu-L-Trp
Clinical outcome (influenza): normalization of fever, reduction in toxic symptoms
E-RFC (lymphocytes): 73.3±2.26%
OKT4+ lymphocytes (lymphocytes): 18.2±1.6%
OKT8+ lymphocytes (lymphocytes): 17.9±1.4%
Clinical outcome (Burns): accelerated rate of wound healing
IgG (Chronic prostatitis; After L-Glu-L-Trp, pre-treatment value Decreased (n = 2)): 7.8 ± 1.1 g/L
Phagocytes (% of PBL) (Chronic prostatitis; After L-Glu-L-Trp, pre-treatment value Decreased (n = 5)): 36.6 ± 8.5 % of PBL
Imm. Cmplx. (Chronic prostatitis; After L-Glu-L-Trp, pre-treatment value Decreased (n = 8)): 0.07 ± 0.01 units
B-Lymphocytes (Chronic prostatitis; After L-Glu-L-Trp, pre-treatment value Decreased (n = 10)): 26.0 ± 2.9
Complement (CH50) (Chronic prostatitis; [2]): 34.2 ± 0.9
T-Lymphocytes (%) (Chronic prostatitis; [2]): 37.9 ± 2.2%
IgM (Chronic prostatitis; After L-Glu-L-Trp, pre-treatment value Increased (n = 1)): 3.44 g/L
T-Lymphocytes (%) (Chronic prostatitis; After L-Glu-L-Trp, pre-treatment value Increased (n = 2)): 40.0 ± 15.5%
IgG (Chronic prostatitis; After L-Glu-L-Trp, pre-treatment value Increased (n = 6)): 14.7 ± 1.4 g/L
Complement (CH50) (Chronic prostatitis; After L-Glu-L-Trp, pre-treatment value Increased (n = 7)): 30.7 ± 0.9
B-Lymphocytes (Chronic prostatitis; After L-Glu-L-Trp, pre-treatment value Increased (n = 8)): 24.8 ± 2.9
Imm. Cmplx. (Chronic prostatitis; After L-Glu-L-Trp, pre-treatment value Increased (n = 19)): 0.08 ± 0.01 units
Phagocytes (% of PBL) (Chronic prostatitis; After L-Glu-L-Trp, pre-treatment value Increased (n = 26)): 37.7 ± 3.9 % of PBL
Phagocytes (% of PBL) (Chronic prostatitis; After L-Glu-L-Trp, pre-treatment value Normal (n = 3)): 58.6 ± 18 % of PBL
Imm. Cmplx. (Chronic prostatitis; After L-Glu-L-Trp, pre-treatment value Normal (n = 7)): 0.08 ± 0.01 units
Complement (CH50) (Chronic prostatitis; After L-Glu-L-Trp, pre-treatment value Normal (n = 13)): 29.3 ± 0.9
B-Lymphocytes (Chronic prostatitis; After L-Glu-L-Trp, pre-treatment value Normal (n = 16)): 29.2 ± 2.2
T-Lymphocytes (%) (Chronic prostatitis; After L-Glu-L-Trp, pre-treatment value Normal (n = 18)): 50.0 ± 3.6%
IgG (Chronic prostatitis; After L-Glu-L-Trp, pre-treatment value Normal (n = 26)): 12.5 ± 0.7 g/L
IgM (Chronic prostatitis; After L-Glu-L-Trp, pre-treatment value Normal (n = 33)): 2.08 ± 0.12 g/L
IgA (Chronic prostatitis; After L-Glu-L-Trp, pre-treatment value Normal (n = 34)): 2.2 ± 0.12 g/L
“Unsatisfactory” results (Chronic prostatitis; Group 1): No “unsatisfactory” results were recorded
B-Lymphocytes: % of PBL (Chronic prostatitis; [3]): 27.2 ± 1.4 % of PBL
B-Lymphocytes: No. (Chronic prostatitis; [3]): 0.54 ± 0.1 10^9/L
Complement (CH50) (Chronic prostatitis; [3]): 29.4 ± 0.5
IgA (Chronic prostatitis; [3]): 2.2 ± 0.1 g/L
IgG (Chronic prostatitis; [3]): 12.5 ± 0.6 g/L
IgM (Chronic prostatitis; [3]): 2.1 ± 0.1 g/L
Immune Complexes (Chronic prostatitis; [3]): 0.80 ± 0.004 units
Phagocytes: % PBL (Chronic prostatitis; [3]): 39.4 ± 3.5 % PBL
T-Lymphocytes: % of Lym (Chronic prostatitis; [3]): 44.4 ± 2.3 % of Lym
T-Lymphocytes: No. (Chronic prostatitis; [3]): 0.88 ± 0.1 10^9/L
Duration of Symptom: Eye muscle pain (Dengue virus; [4]): 6.6 ± 0.8 h
Duration of Symptom: Fever, At day 2-4 of illness (Dengue virus; [4]): 4.7 ± 0.2 h
Duration of Symptom: Fever, At day 2-6 of illness (Dengue virus; [4]): 5.2 ± 0.3 h
Duration of Symptom: Headache (Dengue virus; [4]): 8.1 ± 0.9 h
Duration of Symptom: Hepatomegally (Dengue virus; [4]): 11.3 ± 0.8 h
Duration of Symptom: Insomnia (Dengue virus; [4]): 7.1 ± 0.7 h
Duration of Symptom: Joint pain (Dengue virus; [4]): 7.4 ± 0.7 h
Duration of Symptom: Loss of appetite (Dengue virus; [4]): 7.5 ± 0.8 h
Duration of Symptom: Lumbar pain (Dengue virus; [4]): 8.7 ± 0.7 h
Duration of Symptom: Skeletal muscle pain (Dengue virus; [4]): 7.7 ± 1.1 h
Duration of Symptom: Splenomegally (Dengue virus; [4]): 9.6 ± 0.7 h
Duration of Symptom: Waist/Pelvic girdle pain (Dengue virus; [4]): 8.1 ± 0.8 h
Duration of Symptom: Weakness (Dengue virus; [4]): 9.3 ± 0.8 h
Clinical outcome (Dengue virus; in vivo): decrease in fever, reduction of toxic symptoms
Seropositive patients with a positive response to therapy [1]: 21 of the 29
Seropositive patients with no detectable change [1]: 8
Percentage Survivors (E. coli; 24 hours after injection, Glu-Trp dose 10 μg/kg (alone or + Ampicillin 1 MED)): 83.3* %
Percentage Survivors (E. coli; 24 hours after injection, Glu-Trp dose 100 μg/kg (alone or + Ampicillin 1 MED)): 77.8*† %
Percentage Survivors (E. coli; 24 hours after injection, Glu-Trp dose 1000 μg/kg (alone or + Ampicillin 1 MED)): 83.3*† %
Percentage Survivors (E. coli; 48 hours after injection, Glu-Trp dose 10 μg/kg (alone or + Ampicillin 1 MED)): 11.1%
Percentage Survivors (E. coli; 48 hours after injection, Glu-Trp dose 100 μg/kg (alone or + Ampicillin 1 MED)): 38.9* %
Percentage Survivors (E. coli; 48 hours after injection, Glu-Trp dose 1000 μg/kg (alone or + Ampicillin 1 MED)): 44.4* %
Percentage Survivors (E. coli; 72 hours after injection, Glu-Trp dose 10 μg/kg (alone or + Ampicillin 1 MED)): 11.1%
Percentage Survivors (E. coli; 72 hours after injection, Glu-Trp dose 100 μg/kg (alone or + Ampicillin 1 MED)): 38.9* %
Percentage Survivors (E. coli; 72 hours after injection, Glu-Trp dose 1000 μg/kg (alone or + Ampicillin 1 MED)): 44.4* %
Survival (M. bovis): significantly increased survival
Survival Mean (M. bovis; ip): 39 ± 2 and 36 ± 3 and 30 ± 2 and 33 ± 1 and 31 ± 1 and 28 ± 1
Survival Median (M. bovis; ip): 46 ± 10 and 28 ± 3 and 26 ± 1 and 34 ± 3 and 28 ± 1 and 25 ± 1
Healing earlier than in the control group (Herpes Zoster): 40%
